Test results taken from US20190275012A9, “SUBSTITUTED THIAZOLO-PYRIDINE COMPOUNDS AS MALT1 INHIBITORS” (Lupin Limited, priority 2016, published 2019).

Assays:
[1] = molecular target: T1, full length MALT1 enzyme (Homo sapiens, UniProt Q9UDY8); assay: MALT1 biochemical assay (fluorescence based, Ac-Leu-Arg-Ser-Arg-AMC cleavage); details: full length MALT1 protein, 2 h pre-incubation at RT, tetrapeptide substrate Ac-Leu-Arg-Ser-Arg-AMC, read-out: Malt 1 inhibition IC50
T1 construct: a fluorescence based assay with full length MALT1 enzyme
T1 sequence (Q9UDY8 1-824): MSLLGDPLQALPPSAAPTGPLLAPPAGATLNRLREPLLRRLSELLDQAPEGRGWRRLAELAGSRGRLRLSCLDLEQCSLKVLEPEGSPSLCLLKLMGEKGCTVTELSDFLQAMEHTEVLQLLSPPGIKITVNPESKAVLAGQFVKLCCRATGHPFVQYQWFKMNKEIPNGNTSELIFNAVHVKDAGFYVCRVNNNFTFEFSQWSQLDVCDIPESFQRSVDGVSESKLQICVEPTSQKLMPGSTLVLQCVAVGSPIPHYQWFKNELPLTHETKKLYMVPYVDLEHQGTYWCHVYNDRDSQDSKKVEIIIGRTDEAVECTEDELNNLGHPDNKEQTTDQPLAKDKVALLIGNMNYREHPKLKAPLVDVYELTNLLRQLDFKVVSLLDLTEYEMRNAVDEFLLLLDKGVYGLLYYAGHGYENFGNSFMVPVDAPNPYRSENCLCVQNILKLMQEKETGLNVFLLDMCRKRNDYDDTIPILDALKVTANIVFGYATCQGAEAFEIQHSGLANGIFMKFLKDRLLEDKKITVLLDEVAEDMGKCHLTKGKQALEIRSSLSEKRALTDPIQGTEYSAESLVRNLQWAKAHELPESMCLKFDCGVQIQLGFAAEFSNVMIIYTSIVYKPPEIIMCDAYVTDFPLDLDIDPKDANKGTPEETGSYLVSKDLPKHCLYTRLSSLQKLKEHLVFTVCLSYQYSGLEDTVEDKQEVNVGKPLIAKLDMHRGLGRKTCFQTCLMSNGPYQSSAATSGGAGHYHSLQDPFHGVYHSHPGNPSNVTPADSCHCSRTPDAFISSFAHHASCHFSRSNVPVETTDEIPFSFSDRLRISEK
In short: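 Full-length MALT1 (100-300 ng/well) was pre-incubated with compound for 2 h at RT, then 100 μM Ac-LRSR-AMC was added for 4-12 h. Buffer was 50 mM MES, 150 mM NaCl, 0.1% CHAPS, 1 M ammonium citrate, 10 mM DTT, pH 7, with 0.5% DMSO. IC50 was derived from AMC fluorescence (ex 360/em 460 nm).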

[2] = system: NF-kB transcriptional activity in HEK-293-NF-kB-Luc cell line overexpressing MALT1; assay: NF-kB reporter assay (luciferase, MALT1 stably overexpressed); assay type: cell-based; details: Homo sapiens, 24 h, HEK-293-NF-kB-Luc cells stably overexpressing MALT1, 24 h treatment, Bright Glo luminescence; read-out: NF-kB inhibition IC50
In short: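 HEK-293-NF-κB-Luc cells stably overexpressing MALT1 were seeded overnight, then exposed to test compounds for 24 h. Bright Glo added 10 min at ambient temperature and luminescence read; % inhibition calculated against 0.1% DMSO controls.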

[3] = system: OCI-Ly-10 cells; assay: Anticancer assay (14 days), cell viability by CCK-8; assay type: cell-based; details: Homo sapiens, OCI-Ly10, 336 h, 14 days treatment, fresh treatment every 5th day, CCK-8 viability, read-out: Ly-10 (14d) inhibition IC50
In short: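 OCI-Ly-10 cells in IMDM + 20% FBS exposed to compound for 13–15 days, with media and compound refreshed every 5th day. Viability by CCK-8 absorbance at 450 nm (650 nm background); % inhibition versus 0.1% DMSO medium control.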

Row | Compound | IC50 [1] | IC50 [3] | IC50 [2]
1 | Cc1nc2c(C(C)C)c(NC(=O)Nc3cnc(-n4nccn4)c(Cl)c3)cnc2s1 [Compound 115, 1-(5-Chloro-6-(2H-1,2,3-triazol-2-yl)pyridin-3-yl)-3-(7-isopropyl-2-methylthiazolo[5,4-b]pyridin-6-yl)urea] | 1 to 50 nM | 26 to 100 nM | 1 to 100 nM
2 | COc1ncc(NC(=O)Nc2cnc3sc(C)nc3c2C(C)C)cc1Cl [Compound 119, 1-(5-Chloro-6-methoxypyridin-3-yl)-3-(7-isopropyl-2-methylthiazolo[5,4-b]pyridin-6-yl)urea] | 1 to 50 nM | 251 to 500 nM | 101 to 500 nM
3 | Cc1nc2c(C3CC3)c(NC(=O)Nc3ccc(-n4nccn4)c(Cl)c3)cnc2s1 [Compound 168, 1-(3-Chloro-4-(2H-1,2,3-triazol-2-yl)phenyl)-3-(7-cyclopropyl-2-methylthiazolo[5,4-b]pyridin-6-yl)urea] | 1 to 50 nM | 251 to 500 nM | 501 to 1500 nM
4 | COc1ncc(Cl)cc1NC(=O)Nc1cnc2sc(C)nc2c1C1CC1 [Compound 192, 1-(5-Chloro-2-methoxypyridin-3-yl)-3-(7-cyclopropyl-2-methylthiazolo[5,4-b]pyridin-6-yl)urea] | 51 to 100 nM | 501 to 1500 nM | 101 to 500 nM
5 | Cc1nc2c(C3(CO)CC3)c(NC(=O)Nc3cnc(-n4nccn4)c(C(F)(F)F)c3)cnc2s1 [Compound 223, 1-(6-(2H-1,2,3-Triazol-2-yl)-5-(trifluoromethyl)pyridin-3-yl)-3-(7-(1-(hydroxymethyl)cyclopropyl)-2-methylthiazolo[5,4-b]pyridin-6-yl)urea] | 1 to 50 nM | 251 to 500 nM | 1 to 100 nM

Now from value to compound, other results behind:

Row | IC50 [1] | IC50 [3] | Compound | IC50 [2]
6 | 1 to 50 nM | 501 to 1500 nM | Cc1nc2c(N3CCOCC3)c(NC(=O)Nc3cnc(-n4nccn4)c(Cl)c3)cnc2s1 [Compound 28, 1-(5-Chloro-6-(2H-1,2,3-triazol-2-yl)pyridin-3-yl)-3-(2-methyl-7-morpholinothiazolo[5,4-b]pyridin-6-yl)urea] | 101 to 500 nM
7 | 1 to 50 nM | 26 to 100 nM | COCCN(c1c(NC(=O)Nc2cnc(-n3nccn3)c(Cl)c2)cnc2sc(C)nc12)C1CC1 [Compound 49, 1-(5-Chloro-6-(2H-1,2,3-triazol-2-yl)pyridin-3-yl)-3-(7-(cyclopropyl(2-methoxyethyl)amino)-2-methylthiazolo[5,4-b]pyridin-6-yl)urea] | 1 to 100 nM
8 | 1 to 50 nM | 26 to 100 nM | Cc1nc2c(C3=CCCCC3)c(NC(=O)Nc3cnc(-n4nccn4)c(Cl)c3)cnc2s1 [Compound 59, 1-(5-Chloro-6-(2H-1,2,3-triazol-2-yl)pyridin-3-yl)-3-(7-(cyclohex-1-en-1-yl)-2-methylthiazolo[5,4-b]pyridin-6-yl)urea] | 101 to 500 nM
9 | 1 to 50 nM | 0.1 to 25 nM | COC(C)(C)c1c(NC(=O)Nc2cnc(-n3nccn3)c(C(F)(F)F)c2)cnc2sc(C)nc12 [Compound 96, 1-(6-(2H-1,2,3-Triazol-2-yl)-5-(trifluoromethyl)pyridin-3-yl)-3-(7-(2-methoxypropan-2-yl)-2-methylthiazolo[5,4-b]pyridin-6-yl)urea] | 1 to 100 nM
10 | 1 to 50 nM | 101 to 250 nM | Cc1nc2c(C3(CF)CC3)c(NC(=O)Nc3ccc(-n4nccn4)c(Cl)c3)cnc2s1 [Compound 107, 1-(3-Chloro-4-(2H-1,2,3-triazol-2-yl)phenyl)-3-(7-(1-(fluoromethyl)cyclopropyl)-2-methylthiazolo[5,4-b]pyridin-6-yl)urea] | 1 to 100 nM
